Measurements reported in patent publication US8912121B2, “Herbicidal compositions comprising 4-amino-3-chloro-5-fluoro-6-(4-chloro-2-fluoro-3-methoxyphenyl)pyridine-2-carboxylic acid or a derivative thereof and certain PS II inhibitors” (Dow Agrosciences LLC, priority 2012, dated 2014).

Tested on: XANST (Xanthium strumarium, common cocklebur)
Assay: Pre-emergence soil-applied mixtures, greenhouse
Type: in vivo, Xanthium strumarium L.
Conditions: for Visual Weed Control (%) Obs: 32 DAA
Description: Seeds or nutlets of the desired test plant species were planted in a soil matrix prepared by mixing a loam soil (32 percent silt, 23 percent clay, and 45 percent sand, with a pH of about 6.5 and an organic matter content of about 1.9 percent) and calcareous grit in an 80 to 20 ratio. The soil matrix was contained in plastic pots with a volume of 1 quart and a surface area of 83.6 square centimeters (cm^2).
Treatments consisted of the benzyl ester of 4-amino-3-chloro-5-fluoro-6-(4-chloro-2-fluoro-3-methoxy-phenyl)pyridine-2-carboxylic acid (compound A) formulated as an SC (suspension concentrate) and various herbicidal components alone and in combination. Forms of compound A were applied on an acid equivalent basis.
Other herbicidal components were applied on an acid equivalent or active ingredient basis and included the PSII-inhibiting herbicides, atrazine formulated as Atrazine® 90WDG, metribuzin formulated as Metribuzin 75DF, simazine formulated as Princep Caliber 90, tebuthiuron formulated as Spike 80DF, cyanazine (technical grade material), hexazinone (technical grade material), linuron (technical grade material), terbuthylazine (technical grade material), and diuron formulated as Diuron 4L.
Treatment requirements were calculated based upon the rates being tested, the concentration of active ingredient or acid equivalent in the formulation, and a 12 mL application volume at a rate of 187 L/ha.
For treatments comprised of formulated compounds, measured amounts of compounds were placed individually in 25 mL glass vials and diluted in a volume of 1.25% (v/v) Agri-Dex® crop oil concentrate (COC) to obtain 12× stock solutions. […] Application solutions were prepared by adding an appropriate amount of each stock solution (e.g., 1 mL) and diluted to the appropriate final concentrations with the addition of 10 mL of an aqueous mixture of 1.25% (v/v) COC so that the final spray solutions contained 1.25% (v/v) COC.
For treatments comprised of technical compounds, weighed amounts can be placed individually in 25 mL glass vials and dissolved in a volume of 97:3 (v/v) acetone/DMSO to obtain 12× stock solutions. […] Application solutions can be prepared by adding an appropriate amount of each stock solution (e.g., 1 mL) and diluted to the appropriate final concentrations with the addition of 10 mL of an aqueous mixture of 1.5% (v/v) COC so that the final spray solutions contain 1.25% (v/v) COC. When technical materials are used, the concentrated stock solutions can be added to the spray solutions so that the final acetone and DMSO concentrations of the application solutions are 16.2% and 0.5%, respectively.
For treatments comprised of formulated and technical compounds, weighed amounts of the technical materials can be placed individually in 25 mL glass vials and dissolved in a volume of 97:3 (v/v) acetone/DMSO to obtain 12× stock solutions, and measured amounts of the formulated compounds can be placed individually in 25 mL glass vials and diluted in a volume of 1.5% (v/v) COC or water to obtain 12× stock solutions. […] Application solutions can be prepared by adding an appropriate amount of each stock solution (e.g., 1 mL) and diluted to the appropriate final concentrations with the addition of an appropriate amount of an aqueous mixture of 1.5% (v/v) COC so that the final spray solutions contain 1.25% (v/v) COC. As required, additional water and/or 97:3 (v/v) acetone/DMSO can be added to individual application solutions so that the final acetone and DMSO concentrations of the application solutions being compared are 8.1% and 0.25%, respectively.
All stock solutions and applications solutions were visually inspected for compound compatibility prior to application. Spray solutions were applied to the soil with an overhead Mandel track sprayer equipped with a 8002E nozzles calibrated to deliver 187 L/ha over an application area of 0.503 m^2 at a spray height of 18 inches (46 cm) above average pot height. […]

[1] = Compound A Benzyl Ester 16 g ae/ha
[2] = Compound A Benzyl Ester 32 g ae/ha

CCNc1nc(Cl)nc(NCC)n1 [Simazine, 6-chloro-N,N′-diethyl-1,3,5-triazine-2,4-diamine, reference compound]
Visual Weed Control (%) - 33 DAA XANST Obs (Simazine 1120 g ai/ha): 70%
Visual Weed Control (%) - 33 DAA XANST Obs (Simazine 2240 g ai/ha): 92%

CCNc1nc(Cl)nc(NC(C)C)n1 [Atrazine, 6-chloro-N-ethyl-N′-(1-methylethyl)-1,3,5-triazine-2,4-diamine, reference compound]
Visual Weed Control (%) Obs (560 g ai/ha): 68%
Visual Weed Control (%) Obs (1120 g ai/ha): 40%

COc1c(Cl)ccc(-c2nc(C(=O)OCc3ccccc3)c(Cl)c(N)c2F)c1F [Compound A Benzyl Ester, benzyl ester of 4-amino-3-chloro-5-fluoro-6-(4-chloro-2-fluoro-3-methoxy-phenyl)pyridine-2-carboxylic acid]
Visual Weed Control (%) Obs (8 g ae/ha): 33%
Visual Weed Control (%) Obs (16 g ae/ha): 35%
Visual Weed Control (%) Obs (32 g ae/ha): 65%
Visual Weed Control (%) - 27 DAA XANST Obs [1]: 10%
Visual Weed Control (%) - 29 DAA XANST Obs [1]: 0%
Visual Weed Control (%) - 33 DAA XANST Obs [1]: 38%
Visual Weed Control (%) - 27 DAA XANST Obs [2]: 25%
Visual Weed Control (%) - 29 DAA XANST Obs [2]: 5%
Visual Weed Control (%) - 33 DAA XANST Obs [2]: 35%
